Measurements: PubChem BioAssay (NCI)
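These data come from cells grown in 96-well plates and exposed to compound for 48 hours at five concentrations. TGI: total growth inhibition.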

Key:
Assay in all cases: inhibition of tumour cell growth, NCI panel, 48 h
786-0 renal = tested on: 786-0 renal
A498 renal = tested on: A498 renal
A549 NSCLC = tested on: A549 NSCLC
ACHN renal = tested on: ACHN renal
CAKI-1 renal = tested on: CAKI-1 renal
CCRF-CEM leukemia = tested on: CCRF-CEM leukemia
COLO 205 colon = tested on: COLO 205 colon
DLD-1 colon = tested on: DLD-1 colon
DMS 114 small cell lung = tested on: DMS 114 small cell lung
EKVX NSCLC = tested on: EKVX NSCLC
HCC-2998 colon = tested on: HCC-2998 colon
HCT-116 colon = tested on: HCT-116 colon
HCT-15 colon = tested on: HCT-15 colon
HL-60(TB) leukemia = tested on: HL-60(TB) leukemia
HOP-62 NSCLC = tested on: HOP-62 NSCLC
HOP-92 NSCLC = tested on: HOP-92 NSCLC
HT29 colon = tested on: HT29 colon
IGROV1 ovarian = tested on: IGROV1 ovarian
K-562 leukemia = tested on: K-562 leukemia
KM12 colon = tested on: KM12 colon
KM20L2 colon = tested on: KM20L2 colon
LOX IMVI melanoma = tested on: LOX IMVI melanoma
LXFL 529 NSCLC = tested on: LXFL 529 NSCLC
M14 melanoma = tested on: M14 melanoma
M19-MEL melanoma = tested on: M19-MEL melanoma
MALME-3M melanoma = tested on: MALME-3M melanoma
MOLT-4 leukemia = tested on: MOLT-4 leukemia
NCI-H226 lung = tested on: NCI-H226 lung
NCI-H23 lung = tested on: NCI-H23 lung
NCI-H460 lung = tested on: NCI-H460 lung
NCI-H522 lung = tested on: NCI-H522 lung
OVCAR-3 ovarian = tested on: OVCAR-3 ovarian
OVCAR-4 ovarian = tested on: OVCAR-4 ovarian
OVCAR-5 ovarian = tested on: OVCAR-5 ovarian
RPMI-8226 leukemia = tested on: RPMI-8226 leukemia
RXF 393 renal = tested on: RXF 393 renal
RXF-631 renal = tested on: RXF-631 renal
SF-268 CNS = tested on: SF-268 CNS
SF-295 CNS = tested on: SF-295 CNS
SF-539 CNS = tested on: SF-539 CNS
SK-MEL-28 melanoma = tested on: SK-MEL-28 melanoma
SK-MEL-5 melanoma = tested on: SK-MEL-5 melanoma
SK-OV-3 ovarian = tested on: SK-OV-3 ovarian
SN12C renal = tested on: SN12C renal
SNB-19 CNS = tested on: SNB-19 CNS
SNB-75 CNS = tested on: SNB-75 CNS
SNB-78 CNS = tested on: SNB-78 CNS
SR leukemia = tested on: SR leukemia
SW-620 colon = tested on: SW-620 colon
TK-10 renal = tested on: TK-10 renal
U251 CNS = tested on: U251 CNS
UACC-257 melanoma = tested on: UACC-257 melanoma
UACC-62 melanoma = tested on: UACC-62 melanoma
UO-31 renal = tested on: UO-31 renal
XF 498 CNS = tested on: XF 498 CNS
DMS 273 small cell lung = tested on: DMS 273 small cell lung
HOP-18 NSCLC = tested on: HOP-18 NSCLC
OVCAR-8 ovarian = tested on: OVCAR-8 ovarian
SK-MEL-2 melanoma = tested on: SK-MEL-2 melanoma

Measured: TGI

O=C1NC(=O)C2C1N(Cc1ccccc1)C(=O)N2Cc1ccccc1 (stereo unspecified)
not listed: DMS 273 small cell lung | HOP-18 NSCLC | OVCAR-8 ovarian | SK-MEL-2 melanoma
> 100 µM: all other assays above

N#CC1=C(Cl)NC(Cl)=C(C#N)C1c1c(Cl)cccc1Cl
34.3 µM: HCT-116 colon
37.5 µM: HL-60(TB) leukemia
48.6 µM: KM12 colon
80 µM: HOP-92 NSCLC | OVCAR-8 ovarian
54.5 µM: CCRF-CEM leukemia
39.1 µM: SK-MEL-5 melanoma
99.6 µM: SF-268 CNS
88.8 µM: SK-OV-3 ovarian
83.6 µM: A549 NSCLC
28.3 µM: DMS 114 small cell lung
31 µM: LOX IMVI melanoma
34.5 µM: DMS 273 small cell lung
38.3 µM: NCI-H460 lung
59 µM: RXF 393 renal
35.5 µM: XF 498 CNS
79.5 µM: SN12C renal
91.5 µM: HOP-18 NSCLC
76.9 µM: KM20L2 colon
32.8 µM: COLO 205 colon
50.3 µM: UACC-257 melanoma
46.4 µM: RPMI-8226 leukemia
29.7 µM: HCT-15 colon
46.9 µM: DLD-1 colon | K-562 leukemia
38.1 µM: NCI-H522 lung
48.5 µM: U251 CNS
68.5 µM: 786-0 renal
47 µM: HCC-2998 colon
27 µM: SW-620 colon
73.4 µM: UACC-62 melanoma
64.4 µM: OVCAR-3 ovarian
not listed: M19-MEL melanoma | OVCAR-4 ovarian | RXF-631 renal
> 100 µM: all other assays above

CCOC(=O)C1=C(Nc2ccc(Cl)c(Cl)c2)OC/C1=N\NS(=O)(=O)c1ccc(C)cc1
64.9 µM: RPMI-8226 leukemia
74.8 µM: NCI-H522 lung
85.6 µM: UO-31 renal
61.7 µM: UACC-257 melanoma
not listed: ACHN renal | HCT-15 colon | HOP-92 NSCLC | HT29 colon | SR leukemia | DMS 273 small cell lung
> 100 µM: all other assays above

Cc1cccc(C(C)(C)C)c1NC(=O)CC1Sc2ccccc2NC1=O (stereo unspecified)
45.1 µM: HCT-116 colon
83 µM: DMS 114 small cell lung
73.5 µM: K-562 leukemia
59.7 µM: COLO 205 colon
32.6 µM: SW-620 colon
46 µM: RPMI-8226 leukemia
89.9 µM: HL-60(TB) leukemia
80 µM: HOP-92 NSCLC
not listed: HCT-15 colon | LOX IMVI melanoma | RXF 393 renal | SNB-78 CNS | SR leukemia | XF 498 CNS | SK-MEL-2 melanoma
> 100 µM: all other assays above
